The term IC50 denotes the concentration at which inhibition is half-maximal.

Test [1] concerns the target T1, VLA-4 (a4b1 integrin) (Homo sapiens, UniProt P05556+P13612).
T1 construct: followed by 10 µl of Ramos cell-derived VLA-4; endogenous in cells; host or cells: Ramos cells (VLA-4 derived from them; method of extraction or purification not described)
In words: VLA-4 / VCAM-1 Screening Assay (solid-phase, dual antibody ELISA). To be noted: Ramos cell-derived VLA-4 binding to immobilized recombinant human VCAM-1; 1 mM MnCl2, 2 hr at 37 °C. On the procedure:
VLA-4 / VCAM-1 Screening Assay
VLA-4 antagonist activity, defined as ability to compete for binding to immobilized VCAM-1, was quantitated using a solid-phase, dual antibody ELISA. VLA-4 (a4b1 integrin) bound to VCAM-1 is detected by a complex of anti-integrin b1 antibody: HRP-conjugated anti-mouse IgG: chromogenic substrate (K-Blue). Initially, this entailed coating 96 well plates (Nunc Maxisorp) with recombinant human VCAM-1 (0.4 µg in 100 µl PBS), sealing each plate and then allowing the plates to stand at 4°C for ^~18 hr. […] On the day of assay, all plates are washed twice with VCAM Assay Buffer (200 µl/well of 50 mM Tris-HCl, 100 mM NaCl, 1 mM MnCl2, 0.05% Tween 20; pH 7.4). Test compounds are dissolved in 100% DMSO and then diluted 1:20 in VCAM Assay Buffer supplemented with 1mg/mL BSA (i.e., final DMSO = 5%). […] 100 µl per well of each dilution is added to the VCAM-coated plates, followed by 10 µl of Ramos cell-derived VLA-4. These plates are sequentially mixed on a platform shaker for 1 min, incubated for 2 hr at 37 °C, and then washed four times with 200 µl/well VCAM Assay Buffer. 100 µl of mouse anti-human integrin b1 antibody is added to each well (0.6 µg/mL in VCAM Assay Buffer + 1mg/mL BSA) and allowed to incubate for 1 hr at 37°C. At the conclusion of this incubation period, all plates are washed four times with VCAM Assay Buffer (200 µl/well). A corresponding second antibody, HRP-conjugated goat anti-mouse IgG (100 µl per well @ 1:800 dilution in VCAM Assay Buffer + 1mg/mL BSA), is then added to each well, followed by a 1 hr incubation at room temperature and concluded by three washes (200µl/well) with VCAM Assay Buffer. Color development is initiated by addition of 100 µl K-Blue per well (15 min incubation, room temp) and terminated by addition of 100 µl Red Stop Buffer per well. […] Results are calculated as % inhibition of total binding (i.e., VLA-4 + VCAM-1 in the absence of test compound).
For orientation: ELISA stands for enzyme-linked immunosorbent assay.

Test [2] addresses T1, VLA-4 (a4b1 integrin). In words: Ramos (VLA-4) / VCAM-1 Cell-Based Screening Assay (Ramos-VCAM-1 cell adhesion assay). Conditions: Calcein-AM labeled Ramos cells adhering to immobilized recombinant human VCAM-1; 45 min at room temperature. From the text: Ramos (VLA-4) / VCAM-1 Cell-Based Screening Assay Protocol
Calcein-AM was purchased from Molecular Probes Inc.
VLA-4 (a4b1 integrin) antagonist activity, defined as ability to compete with cell-surface VLA-4 for binding to immobilized VCAM-1, was quantitated using a Ramos-VCAM-1 cell adhesion assay. Ramos cells bearing cell-surface VLA-4, were labeled with a fluorescent dye (Calcein-AM) and allowed to bind VCAM-1 in the presence or absence of test compounds.
Initially, this entailed coating 96 well plates (Nunc Maxisorp) with recombinant human VCAM-1 (100 ng in 100 µl PBS), sealing each plate and allowing the plates to stand at 4°C for ~18 hr. The VCAM-coated plates were subsequently washed twice with 0.05% Tween-20 in PBS, and then blocked for 1hr (room temperature) with 200 µl of Blocking Buffer (1% BSA/0.02% thimerosal) to reduce non-specific binding. Following the incubation with Blocking Buffer, plates were inverted, blotted and the remaining buffer aspirated. Each plate was then washed with 300 µl PBS, inverted and the remaining PBS aspirated.
Test compounds were dissolved in 100% DMSO and then diluted 1:25 in VCAM Cell Adhesion Assay Buffer (4 mM CaCl2, 4 mM MgCl2 in 50 mM TRIS-HCl, pH 7.5) (final DMSO = 4%). […] 100 µl/well of each dilution was added to the VCAM-coated plates, followed by 100 µl of Ramos cells (200,000 cells/well in 1% BSA/PBS). […] Plates were inverted to remove non-adherent cells, blotted and 300 µl/well PBS added. Plates were again inverted, blotted and the remaining buffer gently aspirated. 100 µl Lysis Buffer (0.1% SDS in 50 mM TRIS-HCl, pH 8.5) was added to each well and agitated for 2 min on a rotary shaking platform.

T1 sequence (P13612 34-1032): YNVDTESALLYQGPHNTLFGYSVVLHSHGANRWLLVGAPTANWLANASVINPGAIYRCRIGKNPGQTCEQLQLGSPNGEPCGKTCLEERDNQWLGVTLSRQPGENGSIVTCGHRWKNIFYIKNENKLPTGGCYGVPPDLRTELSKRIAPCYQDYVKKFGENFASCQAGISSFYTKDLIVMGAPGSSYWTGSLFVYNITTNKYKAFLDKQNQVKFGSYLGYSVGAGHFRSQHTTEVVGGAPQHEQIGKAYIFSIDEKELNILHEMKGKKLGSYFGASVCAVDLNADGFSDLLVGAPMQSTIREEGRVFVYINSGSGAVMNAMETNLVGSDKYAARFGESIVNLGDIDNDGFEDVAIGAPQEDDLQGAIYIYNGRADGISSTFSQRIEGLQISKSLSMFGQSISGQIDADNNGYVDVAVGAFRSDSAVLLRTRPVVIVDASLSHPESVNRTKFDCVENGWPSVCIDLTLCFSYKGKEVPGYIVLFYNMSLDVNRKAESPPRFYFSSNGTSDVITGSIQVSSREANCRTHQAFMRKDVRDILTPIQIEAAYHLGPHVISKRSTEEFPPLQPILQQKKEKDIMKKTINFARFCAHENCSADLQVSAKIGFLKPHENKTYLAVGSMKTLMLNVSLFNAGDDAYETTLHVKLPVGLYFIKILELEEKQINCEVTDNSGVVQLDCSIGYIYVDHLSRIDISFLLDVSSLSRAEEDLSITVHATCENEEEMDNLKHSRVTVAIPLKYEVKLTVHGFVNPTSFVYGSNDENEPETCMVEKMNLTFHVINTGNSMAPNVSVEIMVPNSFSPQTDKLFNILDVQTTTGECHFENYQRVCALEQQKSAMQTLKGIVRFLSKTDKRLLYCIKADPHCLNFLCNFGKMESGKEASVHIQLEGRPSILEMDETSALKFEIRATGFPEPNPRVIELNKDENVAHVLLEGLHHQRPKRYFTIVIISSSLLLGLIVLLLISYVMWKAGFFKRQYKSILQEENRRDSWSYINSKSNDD
T1 sequence (P05556 21-798): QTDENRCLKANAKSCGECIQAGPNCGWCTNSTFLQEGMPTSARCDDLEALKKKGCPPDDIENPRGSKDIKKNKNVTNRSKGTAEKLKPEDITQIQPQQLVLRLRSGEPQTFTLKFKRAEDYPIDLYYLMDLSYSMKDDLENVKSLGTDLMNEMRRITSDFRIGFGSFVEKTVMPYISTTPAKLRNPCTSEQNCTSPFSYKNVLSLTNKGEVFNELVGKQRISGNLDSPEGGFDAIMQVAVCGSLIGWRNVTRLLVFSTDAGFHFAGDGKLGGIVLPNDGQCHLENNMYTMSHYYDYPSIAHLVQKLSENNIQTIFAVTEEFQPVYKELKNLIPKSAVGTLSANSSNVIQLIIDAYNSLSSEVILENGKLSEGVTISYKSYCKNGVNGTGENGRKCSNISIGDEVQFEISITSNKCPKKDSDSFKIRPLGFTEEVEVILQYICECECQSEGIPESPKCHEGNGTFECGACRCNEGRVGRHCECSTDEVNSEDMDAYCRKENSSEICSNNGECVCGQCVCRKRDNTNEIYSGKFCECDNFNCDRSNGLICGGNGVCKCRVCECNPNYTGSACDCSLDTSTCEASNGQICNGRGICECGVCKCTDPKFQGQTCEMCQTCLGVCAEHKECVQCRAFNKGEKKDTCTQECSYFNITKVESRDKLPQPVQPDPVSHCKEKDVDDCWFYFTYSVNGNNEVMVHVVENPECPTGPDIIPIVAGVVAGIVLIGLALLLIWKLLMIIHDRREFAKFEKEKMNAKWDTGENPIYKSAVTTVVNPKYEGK

`Cc1cc(CC(NC(=O)c2c(C)cccc2Cl)C(=O)O)ccc1NC(=O)c1c(Cl)cccc1Cl` (stereo not drawn) [Example 123]: the concentration for half-maximal inhibition (IC50) in test [1] was 1.7 nM; in test [2] it was 316 nM.

`Cc1cc(CC(NC(=O)c2c(C)cccc2Cl)C(=O)O)ccc1NC(=O)Cc1cccc(O)c1` (stereo not drawn) [Example 121]: the concentration for half-maximal inhibition (IC50) in test [1] is 5.8 nM; in test [2], 515 nM.

As for `COc1ccc(Br)c(C(=O)NC(Cc2ccc(NC(=O)c3c(C)ccnc3C)cc2)C(=O)O)c1` (stereo not drawn) [Example 108], the half-maximal inhibitory concentration (IC50) is 0.63 nM in test [1] and 22 nM in test [2].

Consider `Cc1cc(CC(NC(=O)c2c(C)cccc2Cl)C(=O)O)ccc1NC(=O)CCc1cccc(O)c1` (stereo not drawn) [Example 120], for which the half-inhibitory concentration (IC50) is 4.5 nM in test [1] and 439 nM in test [2].

On to `O=C(NC(Cc1ccc(NC(=O)c2c(Cl)cccc2Cl)cc1)C(=O)O)c1ccccc1Cc1ccccc1` [Example 31, 4-[[(2,6-dichlorophenyl)carbonyl]amino]-N-[[(2-phenylmethyl)phenyl]carbonyl]-L-phenylalanine], for which the IC50 in test [1] came out at 0.51 nM.

Values taken from patent publication EP1403247A1, “N-Alkanoylphenylalanine derivatives” (F.HOFFMANN-LA ROCHE AG, priority 1997, dated 1999).
